Test results from US20250041278A1, “TLR8 AGONIST FOR MODULATING IMMUNE RESPONSE” (The Children's Medical Center Corporation, priority 2021, published 2025).
Like-named read-outs stand apart in the source and are kept apart here.

Assays:
[1] = test system: Balb/c murine model of SARS-CoV-2 immunization; assay type: in vivo, BALB/c mice; conditions: for rSpike immunogenicity: prime Day 0, boost Day 14
[2] = molecular target: T1, hTLR8 (Homo sapiens, UniProt Q9NR97); assay: HEK-293 hTLR8 NF-κB/AP-1 SEAP reporter assay; assay type: cell-based
T1 construct: host or cells: HEK-293 reporter cells
T1 sequence (Q9NR97 27-1041): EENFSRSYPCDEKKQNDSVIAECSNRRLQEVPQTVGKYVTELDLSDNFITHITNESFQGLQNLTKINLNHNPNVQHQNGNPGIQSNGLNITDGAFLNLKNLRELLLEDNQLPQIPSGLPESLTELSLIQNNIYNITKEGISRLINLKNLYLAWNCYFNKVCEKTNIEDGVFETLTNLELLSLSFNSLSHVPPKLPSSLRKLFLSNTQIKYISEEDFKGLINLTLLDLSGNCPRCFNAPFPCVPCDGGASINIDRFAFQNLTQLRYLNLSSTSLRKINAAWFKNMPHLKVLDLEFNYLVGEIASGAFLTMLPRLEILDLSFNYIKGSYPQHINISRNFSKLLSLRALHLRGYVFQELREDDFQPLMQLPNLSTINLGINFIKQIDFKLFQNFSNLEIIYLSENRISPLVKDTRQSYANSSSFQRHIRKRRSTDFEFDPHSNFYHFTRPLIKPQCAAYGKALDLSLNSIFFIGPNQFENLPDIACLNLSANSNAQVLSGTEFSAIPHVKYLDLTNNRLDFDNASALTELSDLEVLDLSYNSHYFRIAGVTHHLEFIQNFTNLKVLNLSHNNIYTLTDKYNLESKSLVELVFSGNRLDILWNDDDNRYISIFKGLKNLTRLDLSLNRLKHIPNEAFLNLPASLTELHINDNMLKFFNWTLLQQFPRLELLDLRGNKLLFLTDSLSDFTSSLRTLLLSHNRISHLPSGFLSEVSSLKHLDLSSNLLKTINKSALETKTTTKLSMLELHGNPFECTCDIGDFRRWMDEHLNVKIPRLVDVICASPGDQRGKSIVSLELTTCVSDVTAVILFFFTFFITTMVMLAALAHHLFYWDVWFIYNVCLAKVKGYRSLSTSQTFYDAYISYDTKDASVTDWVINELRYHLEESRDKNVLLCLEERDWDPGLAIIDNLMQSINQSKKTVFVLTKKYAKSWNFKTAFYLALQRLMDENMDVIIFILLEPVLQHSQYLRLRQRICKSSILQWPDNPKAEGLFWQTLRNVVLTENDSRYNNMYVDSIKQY
Protocol: (§1) FIGS. 3A-3E. PVP-179 is a TLR8 agonist. FIG. 3A: PVP-179 was sent to InvivoGen for PRR ligand screening service. Various cells lines were utilized to screen for PVP-179-induced ([…]) activation of TLRs, NOD1/2, RIG-I/MDA-5, Dectin-1 or Mincle receptor. The heat-map depicts percentage activity compared to the positive control for each receptor. FIG. 3B: PVP-179 induced activity (% activity compared to the positive control: CL075 at 1 μg/mL) in HEK-293 cells specifically expressing hTLR8. In brief, these cells have an NF-κB/AP-1-inducible secreted embryonic alkaline phosphatase (SEAP) reporter gene which allows monitoring of signaling via TLR8. After incubation for 16-24 hours, supernatant harvested from the cells is mixed with media containing SEAP-substrate and the optical density (OD) is measured at 650 nm using a spectrophotometer. FIG. 3C: As in FIG. 3B, HEK cells specifically expressing hTLR2, hTLR7, or hTLR8, in addition to the HEK-Null cell line carrying only the reporter gene, were stimulated with the indicated concentrations of PVP-179. […] PVP-179 activity is expressed as a percentage of NF-κB induced in the cells stimulated with TNF (positive control for each cell line). […] The supernatants were harvested after 20-24 hours and SEAP production (to assess NF-κB activity) was measured using QUANTIBlue assay. […]

[3] = test system: null HEK cells; assay: HEK-Null reporter cell line (reporter gene only); assay type: cell-based, human; conditions: negative control cells, even at higher concentrations
Protocol: as §1

[4] = molecular target: T2, human (h)TLR8 (Homo sapiens, UniProt Q9NR97); assay: PRR ligand screening (InvivoGen) in reporter cell lines; assay type: cell-based; conditions: HEK reporter cells; % activity vs positive control
T2 construct: host or cells: HEK-293 reporter cells
T2 sequence (Q9NR97 27-1041): T1 sequence (Q9NR97 27-1041)
Protocol: as §1

[5] = test system: human adult PBMCs; assay: TNF ELISA in human adult PBMCs after TLR8 inhibitor CUCPT-9a; assay type: cell-based; conditions: CUCPT-9a pre-incubation
Protocol: FIG. 3E: As in FIG. 3D, PBMCs isolated from human adult donors were cultured with 10% autologous plasma and incubated with CUCPT-9a. After inhibition, cells were stimulated with DMSO, TL8-506 (TLR8 specific agonist), LPS (TLR4 agonist; negative control) and different concentrations of PVP-179. Supernatants were harvested after 20-24 hours and analyzed for production of TNF via ELISA. N=6 donors.
Next a TLR8-specific pharmacological inhibitor (CUCPT-9a), which stabilizes the TLR8 dimer in its resting state, was used to inhibit activity downstream of TLR8.

[6] = test system: human adult and elderly PBMCs; assay: 14-multiplex cytokine assay in PBMC supernatants; assay type: cell-based
Source text: FIGS. 1A-1D. Discovery of PVP-179 in a human PBMC high-throughput screen. FIG. 1A: A graphical overview depicting screen approach. From a high-throughput screen previously conducted, 310 molecules were identified to be activators of either THP-1 cells (monocyte cell line) or primary human adult peripheral blood mononuclear cells (PBMCs). These 310 molecules were assembled into a stimulation plate and then applied to the PBMCs of 4 elderly donors (cultured with 10% autologous plasma). […] Z scores were averaged across all four elderly donors. The Z score and chemical structure for PVP-179 are indicated. FIG. 1C: Human adult or elderly PBMCs (cultured with 10% autologous plasma) were stimulated with PVP-179 in a two-point concentration titration manner. After 18 hours of incubation, supernatant was processed for ELISA-based measurement of TNF production. N=4 donors. FIG. 1D: As in FIG. 1C, the supernatants were collected, and 14 cytokines were measured by multiplex assay. […] N=4 donors each.
The activity of PVP-179 was confirmed in a 96-well format in both human adult and elderly PBMCs.

Question: With `CCCCn1c(/N=C/c2nc3ccccc3n2C)nc2ccccc21` [PVP-179] as the compound, how does the adjuvant activity ([1]; adult mice) read?
Answer: The adjuvant activity was “adjuvant activity”.

Question: What about the rSpike immunogenicity ([1]; adult mice (12 weeks)) of the same compound?
Answer: The rSpike immunogenicity was “enhanced rSpike immunogenicity”.

Question: And the antibody subtype enhanced ([1]; aged mice)?
Answer: The antibody subtype enhanced was “primarily enhanced the production of anti-rSpike IgG1 subtype antibodies”.

Question: And the rSpike immunogenicity ([1]; aged mice (52 weeks/12 months old))?
Answer: The rSpike immunogenicity was “enhanced rSpike immunogenicity”.

Question: What about the “antibody titers compared to rSpike alone” value ([1]; aged mice, Day 28 serum) of the same compound?
Answer: Its value is 2-5 fold.

Question: What about the “NF-κB activity in HEK cells expressing hTLR8” value ([2]; 20-24 hours) of the same compound?
Answer: Its value is “concentration-dependent activity”.

Question: And the “activity in HEK-hTLR8 cells after TLR8 inhibitor CUCPT-9a” value ([2]; CUCPT-9a 1 μM, PVP-179 at 33 μM or above)?
Answer: Its value is “significantly blocked”.

Question: What about the “NF-κB activity in null HEK cells” value [3] of the same compound?
Answer: The value was “no activity was detected”.

Question: And the “activity among all TLRs and other receptors tested” value [4]?
Answer: Its value is “maximal activity toward human (h)TLR8”.

Question: What about the “PVP-179 induced TNF production after CUCPT-9a” value [5] of the same compound?
Answer: The value was “completely blocked”.

Question: And the “innate immune response (cytokine responses), elder vs younger adult leukocytes” value ([6]; 14-multiplex assay)?
Answer: Its value is “greater innate immune response in elder leukocytes than in younger adult controls”.

Question: What about the “proinflammatory cytokine and chemokine induction (TNF, IL-6, IL-8, IL-10, IL-12 p40, IL-12 p70, IP-10, CCL5, CCL3, MCP1, GM-CSF, IFN-γ, IFN-α2, IL1-β)” value ([6]; similarly to R848 at 25 μM) of the same compound?
Answer: Its value is “titration-dependent concentration of proinflammatory cytokines”.
